Data reported in ChEMBL document CHEMBL4732152, “Flavonoids from Woodfordia fruticosa as potential SmltD inhibitors in the alternative biosynthetic pathway of peptidoglycan” (Bioorg Med Chem Lett, 2021).
pIC50, pKi: −log10 of the molar value. The source made the active and inactive calls. No cut-off for these calls is given here. *1 amine or outer side, *2 acyl side, *3 side chain or, on linkers, in order; H or OH if unused. Where a SMILES comes first, the peptide text is derived from it. Bridges are numbered along the chain shown (N, C = ends). Roman numbers before positions name the chains, in order. [ ]: non-standard residue; d: D form. Actinocin(1to9) = Cc1c2oc3c(C)ccc(C(=O)[*:2])c3nc-2c(C(=O)[*:1])c(N)c1=O; NMeV = CN[C@H](C(=O)O)C(C)C; Sar = CNCC(=O)O

Key:
[1] = Inhibition of Stenotrophomonas maltophilia SmltD using UDP-MurNAc-L-Ala[…] as substrate in presence of ATP incubated for 5 mins by HPLC; conditions: for pIC50: read-out: IC50
[2] = test system: Stenotrophomonas maltophilia; test: Non-Competitive inhibition of Stenotrophomonas maltophilia SmltD using UDP-MurNAc-L-Ala[…] as substrate by Dixon plot analysis
[3] = Competitive inhibition of Stenotrophomonas maltophilia SmltD assessed as inhibition constant using ATP as substrate by Dixon plot analysis
[4] = test system: Stenotrophomonas maltophilia; test: Non-Competitive inhibition of Stenotrophomonas maltophilia SmltD using […] as substrate by Dixon plot analysis

O[C@H]1[C@H](O)[C@@H](O)OC[C@H]1O
IC50 [1]: Not Active

OC[C@H]1O[C@@H](O)[C@H](O)[C@@H](O)[C@@H]1O [beta-D-Glucose]
IC50 [1]: Not Active

O=c1c(O[C@@H]2O[C@H](CO)[C@@H](O)[C@H](O)[C@H]2O)c(-c2ccc(O)cc2)oc2cc(O)cc(O)c12 [ASTRAGALIN]
pIC50 [1]: 2.93

O=c1c(O)c(-c2ccc(O)cc2)oc2cc(O)cc(O)c12 [KAEMPFEROL]
pIC50 [1]: 2.63

O=C(OC[C@H]1O[C@@H](Oc2c(-c3ccc(O)cc3)oc3cc(O)cc(O)c3c2=O)[C@H](O)[C@@H](O)[C@@H]1O)c1cc(O)c(O)c(O)c1
inhibition [2]: Active | pKi [3]: 3.96 | inhibition [4]: Active | pIC50 [1]: 3.34

O=C(O)c1cc(O)c(O)c(O)c1 [GALLIC ACID]
pIC50 [1]: 2.54

O=c1c(O[C@H]2OC[C@@H](O)[C@@H](O)[C@@H]2O)c(-c2ccc(O)cc2)oc2cc(O)cc(O)c12
pIC50 [1]: 2.69

Cc1c2oc3c(C)ccc(C(=O)N[C@@H]4C(=O)N[C@H](C(C)C)C(=O)N5CCC[C@H]5C(=O)N(C)CC(=O)N(C)[C@@H](C(C)C)C(=O)O[C@@H]4C)c3nc-2c(C(=O)N[C@@H]2C(=O)N[C@H](C(C)C)C(=O)N3CCC[C@H]3C(=O)N(C)CC(=O)N(C)[C@@H](C(C)C)C(=O)O[C@@H]2C)c(N)c1=O [DACTINOMYCIN] (I: T[dV]P[Sar][NMeV] / II: T[dV]P[Sar][NMeV]; ester I:1-I:C, II:1-II:C; linker I:N-II:N via Actinocin(1to9))
pIC50 [1]: 1.83
